According to patent publication US12122787B2, “Fused pyridone compound, and preparation method therefor and use thereof” (SHANGHAI JEMINCARE PHARMACEUTICALS CO., LTD, priority 2019, dated 2024):
Where two headings read alike, the source gives them in different places.

Legend:
[1] = system: MIA PaCa2 cells expressing KRAS-G12C; assay: Growth inhibition of tumor cell line expressing KRAS-G12C (Cell Titer Glo), MIA PaCa2; assay type: cell-based; settings: MIA-Paca2, 72 hours
Protocol: (§1) The ability of the compounds of the present disclosure to inhibit the growth of cells expressing KRAS-G12C was evaluated by measuring the cell viability and calculating the GI50 values.
(§2) The tumor cell line NCI-H358 (ATCC catalogue number CRL-5807) expressing KRAS-G12C was cultured in RPMI medium supplemented with 10% fetal bovine serum and penicillin/streptomycin, and the tumor cell line MIA PaCa2 (ATCC CRL-1420) expressing KRAS-G12C was cultured in DMEM medium supplemented with 10% fetal bovine serum, 2.5% horse serum, and penicillin/streptomycin.
(§3) Cells NCI-H358 and MIA-Paca2 were inoculated into black transparent bottom 384-well plate (PerkinElmer catalogue number 6007460) with cell density of 1000 and 800 respectively, and the cells were allowed to adhere to the wall overnight (8-12 hours). After the cells adhered to the wall, the experimental group was added with the compound of the present disclosure diluted 5 times the concentration of the working solution (final concentration containing 0.1% dimethyl sulfoxide, i.e. DMSO); the control group was added with the same dilution as the experimental group (final concentration containing 0.1% DMSO). After 72 hours, Cell Titer Glo reagent (Promega catalogue number G7572) was used to detect ATP content according to the instruction method to determine the amount of cell proliferation. The brief operation steps were as follows: the cell plate was taken out and kept at normal temperature for equilibrium for 30 minutes; Cell Titer Glo reagent with the same volume as the culture was added; the culture plate was placed on a shaker for shaking and cracking for 2 minutes; the culture plate was left to stand at room temperature for 10 minutes; then the light signal value was read by microplate reader EnVision (PerkinElmer).
(§4) Data from all experimental groups were used to calculate the respective percent inhibition using the DMSO group, and the GI50 was calculated using the data processing software GraphPad to analyze the inhibition rates produced by the 9 compound dose concentrations diluted at ⅓-fold ratio.

[2] = system: phosphorylated ERK (Thr202/Tyr204) in NCI-H358 cells expressing mutant RAS(G12C); assay: Inhibition of RAS-mediated signal transduction: phosphorylated ERK ELISA in NCI-H358 cells; assay type: cell-based; settings: NCI-H358 cells, 2 hours of treatment, pERK normalized by Janus Green B, read-out: p-ERK IC50 (NCI H358)
[3] = system: NCI-H358 cells expressing KRAS-G12C; assay: Growth inhibition of tumor cell line expressing KRAS-G12C (Cell Titer Glo), NCI-H358; assay type: cell-based
Protocol: as §1, §2, §3, §4

[4] = In vivo pharmacokinetic evaluation in mice by intravenous injection and oral administration; settings: male ICR mice
Protocol: In this experimental embodiment, in vivo pharmacokinetic evaluation was performed in mice by intravenous injection and oral administration.
Experimental methods and conditions: Male ICR mice were given a single dose of 1 mg/Kg (intravenous injection, solvent 5% DMSO+15% Solutol+80% saline) and 5 mg/Kg (intragastric administration, solvent 1% Tween80/2% HPMC/97% water) of the compound to be tested, respectively; 5 min, 15 min, 30 min, 1 hour, 2 hours, 4 hours, 6 hours, 8 hours, 24 hours after administration, blood was collected from the orbital vein, and each sample was collected at approximately 0.20 mL, anticoagulated with sodium heparin, placed on ice after collection, and centrifuged within 1 hour to separate the plasma for measurement. Plasma drug concentration in plasma was detected by liquid chromatography tandem mass spectrometry (LC/MS/MS) to calculate pharmacokinetic parameters.

[5] = intragastric administration 5 mg/kg vs intravenous 1 mg/kg
[6] = intragastric administration 5 mg/kg, plasma
[7] = intravenous administration 1 mg/kg, plasma
[8] = mouse, po, intragastric administration 5 mg/kg, plasma
[9] = mouse, intravenous administration 1 mg/kg, plasma

SMILES	GI50 ([1]; Homo sapiens, MIA PaCa-2, 72 h)	GI50 ([3]; Homo sapiens, NCI-H358, 72 h)	IC50 ([2]; Homo sapiens, NCI-H358, 2 h)	further results
C=CC(=O)N1C[C@@H]2C(=O)N(CCN(C)C)c3c(c4cc(Cl)c(-c5c(F)cccc5OC)c(F)c4n(-c4c(C)ccnc4C(C)C)c3=O)N2C[C@H]1C (atropisomer, axis not shown) [Compound 27C]				GI50 [1]: 0.003 µM; IC50 [2]: 0.004 µM; GI50 ([3]; NCI-H358, 72 hours): 0.005 µM; F (%) [4, 5]: 20.30%; AUCinf [4, 6]: 526.88 ng·h/mL; Cmax [4, 6]: 133.67 ng/mL; T1/2 [4, 6]: 1.78 h; AUCinf [4, 7]: 519.01 ng·h/mL; Cl [4, 7]: 32.11 mL/min/kg; T1/2 [4, 7]: 1.76 h; Vz [4, 7]: 4.89344 L/kg
C=CC(=O)N1CC2COc3c(c4cc(F)c(-c5c(O)cccc5F)c(F)c4n(-c4c(C)ccnc4C(C)C)c3=O)N2CC1C (single isomer, unassigned) [Compound 3B-2]				GI50 [1]: 0.031 µM; IC50 [2]: 0.006 µM; GI50 ([3]; NCI-H358, 72 hours): 0.005 µM; F (%) [4, 5]: 17.01%; AUCinf [4, 6]: 1984.18 ng·h/mL; Cmax [4, 6]: 746.67 ng/mL; T1/2 [4, 6]: 3.96 h; AUCinf [4, 7]: 2333.44 ng·h/mL; Cl [4, 7]: 7.14 mL/min/kg; T1/2 [4, 7]: 5.99 h; Vz [4, 7]: 3.7066 L/kg
C=CC(=O)N1CCN(c2nc(=O)n(-c3c(C)ccnc3C(C)C)c3nc(-c4c(O)cccc4F)c(F)cc23)[C@@H](C)C1 [AMG 510]				bioavailability ([4]; mouse, plasma, oral, intragastric administration 5 mg/kg vs intravenous 1 mg/kg): 17.6%; AUC(0-inf) [4, 8]: 155 ng·h/mL; half-life [4, 8]: 0.57 h; Cmax ([4]; mouse, po, intragastric administration 5 mg/kg, plasma, read-out: Cmax): 177 ng/mL; AUC(0-inf) [4, 9]: 176 ng·h/mL; clearance [4, 9]: 94.6 mL/min/kg; half-life [4, 9]: 0.26 h; Vd ([4]; mouse, intravenous administration 1 mg/kg, plasma, read-out: Vz): 2.16 L/kg
C=CC(=O)N1C[C@@H]2C(=O)N(C)c3c(c4cc(F)c(-c5c(C)ccc6[nH]nc(N)c56)c(F)c4n(-c4c(C)ccnc4C(C)C)c3=O)N2C[C@H]1C [Compound 28A]	0.009 µM	0.007 µM	0.006 µM	
C=CC(=O)N1C[C@@H]2C(=O)N(CCN(C)C)c3c(c4cc(Cl)c(-c5c(O)cccc5F)nc4n(-c4c(C)ccnc4C(C)C)c3=O)N2C[C@H]1C [Compound 29A]	0.067 µM	0.044 µM	0.124 µM	
C=CC(=O)N1C[C@@H]2C(=O)N(CCN(C)C)c3c(c4cc(Cl)c(-c5c(F)cccc5OC)nc4n(-c4c(C)ccnc4C(C)C)c3=O)N2C[C@H]1C [Compound 30A]	0.231 µM	0.208 µM	0.17 µM	
C=CC(=O)N1C[C@@H]2C(=O)N(C)c3c(c4cc(F)c(-c5c(C)ccc6[nH]ncc56)c(F)c4n(-c4c(C)ccnc4C(C)C)c3=O)N2C[C@H]1C [Compound 32A]	0.604 µM	0.442 µM	0.274 µM	
C=CC(=O)N1C[C@@H]2C(=O)N(C)c3c(c4cc(Cl)c(-c5c(O)cccc5F)c(F)c4n(-c4c(C)ncnc4C(C)C)c3=O)N2C[C@H]1C [Compound 49A]	0.009 µM	0.004 µM	0.004 µM	
C=CC(=O)N1C[C@@H]2C(=O)N(C)c3c(c4cc(Cl)c(-c5c(F)cccc5OC)c(F)c4n(-c4c(C)ncnc4C(C)C)c3=O)N2C[C@H]1C [Compound 50]	0.094 µM	0.062 µM	0.041 µM	
C=CC(=O)N1C[C@@H]2C(=O)N(C)c3c(c4cc(Cl)c(-c5c(O)cccc5F)c(F)c4n(-c4c(CC)ccnc4C(C)C)c3=O)N2C[C@H]1C [Compound 53A-1]	0.004 µM	0.002 µM	0.003 µM	

Continued, in another order:

GI50 ([1]; Homo sapiens, MIA PaCa-2, 72 h)	GI50 ([3]; Homo sapiens, NCI-H358, 72 h)	SMILES	IC50 ([2]; Homo sapiens, NCI-H358, 2 h)	further results
2.14 µM		C=CC(=O)N1C[C@@H]2CN(CCCO)c3c(c4cc(F)c(-c5c(O)cccc5F)c(F)c4n(-c4c(C)ccnc4C(C)C)c3=O)N2C[C@H]1C [Compound 35A]		IC50 [2]: 0.068 µM; GI50 ([3]; NCI-H358, 72 hours): 0.053 µM
0.235 µM	0.032 µM	C=CC(=O)N1C[C@@H]2CN(CCO)c3c(c4cc(F)c(-c5c(O)cccc5F)c(F)c4n(-c4c(C)ccnc4C(C)C)c3=O)N2C[C@H]1C [Compound 36A-1]	0.016 µM	
0.392 µM	0.066 µM	C=CC(=O)N1C[C@@H]2CN(CCC(C)O)c3c(c4cc(F)c(-c5c(O)cccc5F)c(F)c4n(-c4c(C)ccnc4C(C)C)c3=O)N2C[C@H]1C (stereo partly drawn) [Compound 37A]	0.07 µM	
0.535 µM	0.077 µM	C=CC(=O)N1C[C@@H]2CN(CC(=O)OC)c3c(c4cc(F)c(-c5c(O)cccc5F)c(F)c4n(-c4c(C)ccnc4C(C)C)c3=O)N2C[C@H]1C [Compound 38B]		IC50 [2]: 0.064 µM
0.056 µM	0.062 µM	C=CC(=O)N1C[C@@H]2C(=O)N(CCO)c3c(c4cc(F)c(-c5c(O)cccc5F)c(F)c4n(-c4c(C)ccnc4C(C)C)c3=O)N2C[C@H]1C [Compound 40A]	0.052 µM	
2.23 µM	0.53 µM	C=CC(=O)N1C[C@@H]2C(=O)N(CCCO)c3c(c4cc(F)c(-c5c(O)cccc5F)c(F)c4n(-c4c(C)ccnc4C(C)C)c3=O)N2C[C@H]1C [Compound 41A]	0.942 µM	
0.228 µM	0.009 µM	C=CC(=O)N1C[C@@H]2C(=O)N(C)c3c(c4cc(Cl)c(-c5c(F)cccc5OC)c(F)c4n(-c4c(C)ccnc4C(C)C)c3=O)N2C[C@H]1C [Compound 42A]	0.009 µM	
1.57 µM	0.424 µM	C=CC(=O)N1C[C@@H]2CN(CC(N)=O)c3c(c4cc(F)c(-c5c(O)cccc5F)c(F)c4n(-c4c(C)ccnc4C(C)C)c3=O)N2C[C@H]1C [Compound 44A]	0.58 µM	
